Experimental data reported in patent publication US7601739B2, “Compounds having antiestrogenic and tissue selective estrogenic properties, and compounds with anti-androgenic properties for treatment of prostate cancer and androgen receptor dependent diseases” (Virgina Commonwealth University, priority 2006, dated 2009).

Key:
hERα D351Y = molecular target: T1, hERα D351Y (Homo sapiens, UniProt P03372, D351Y); experiment: Transient transfection reporter assay with hERα D351Y mutant; type: cell-based
T1 construct: mammalian expression plasmid containing full length human ER cDNA, pCMV-hER; expressed in transfected cells
T1 sequence (P03372 1-595 D351Y): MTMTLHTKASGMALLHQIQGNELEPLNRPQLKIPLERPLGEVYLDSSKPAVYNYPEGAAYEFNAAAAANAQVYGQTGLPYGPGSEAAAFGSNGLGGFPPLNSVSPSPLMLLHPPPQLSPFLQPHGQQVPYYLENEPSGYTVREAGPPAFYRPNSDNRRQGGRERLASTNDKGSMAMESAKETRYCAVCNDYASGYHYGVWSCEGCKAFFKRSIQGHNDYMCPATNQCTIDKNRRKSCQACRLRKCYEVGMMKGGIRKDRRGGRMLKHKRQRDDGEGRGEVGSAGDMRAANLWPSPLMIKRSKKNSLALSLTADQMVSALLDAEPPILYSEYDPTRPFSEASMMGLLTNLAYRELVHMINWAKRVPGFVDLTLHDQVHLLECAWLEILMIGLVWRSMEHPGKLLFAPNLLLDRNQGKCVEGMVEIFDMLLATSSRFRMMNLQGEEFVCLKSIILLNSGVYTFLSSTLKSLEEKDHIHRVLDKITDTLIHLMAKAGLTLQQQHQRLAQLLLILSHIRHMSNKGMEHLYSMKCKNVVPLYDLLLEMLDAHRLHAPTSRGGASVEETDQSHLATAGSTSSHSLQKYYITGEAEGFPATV
Description: The tyrosine mutation (pCMV-D351Y) at amino acid 351 was introduced by using the Quick Change Site-Directed Mutagenesis Kit (Stratagene, La Jolla, Calif.) and pCMV-ER was used as the template. The primers constructed were as follows: 5′ primer (5′-[…]-3′) (SEQ ID NO. 9), the underlined nucleotide was changed to make the D351Y mutation) and a 3′ primer (5′-[…]-3′) (SEQ ID NO. 10).
For the transient transfection reporter assays, the cells were plated in triplicate in 12-well plates at a density of 300000 cells/well in the phenol red-free DMEM (GIBCO/BRL, Grand Island, N.Y.) supplemented with 10% charcoal-stripped fetal bovine serum (Hyclone, Logan, Utah), Penicillin (100 unit/ml)/Streptomycin ([…]), 2 mML-glutamine and 1 mM sodium Pyruvate. 24 hrs later, the cells were transfected with three plasmids by using Superfect transfection kit (Qiagen, Valencia, Calif.). For the detection of hER activity, cells were transfected with 2 g hER expression plasmid (pCMV-ER ), 6 g luciferase reporter plasmid containing estrogen receptor response element (PGL-TATA-Luc), and 600 ng normalization control, β-galactosidase reporter plasmid (pCMV ). For the detection of hER activity, cells were transfected with 3 ug hER expression plasmid (pcDNA3.1-hER), 6 g luciferase reporter plasmid containing estrogen receptor response element (PGL-TATA-Luc), and 600 ng pCMV. For determining the influence of ER's major coactivator in breast, AIB 1, 2 g pcDNA3.1-AIB1 was added into the transfection plasmid solution mentioned previously.
The transfected cells were rinsed with PBS and treated with various concentrations of test molecules and one […] (vehicle, DMSO or methanol) in phenol red-free culture medium. After incubation for further 24 hrs, the cells were washed with PBS and lysed with lysis buffer (Pierce, Rockford, Ill.). The lysate was used to determine the luciferase activity for ER's activity and the β-galactosidase activity for the normalization of transfection efficiency.
For the luciferase activity assay, 20 μl of lysate and 100 μl luciferase assay buffer (Promega, Madison, Wis.) were added into a well of 96-well plate. The luminescence was detected by using luminescence microplate reader, LumiCount (Packard, Boston, Mass.). For the β-galactosidase activity assay, […] β-galactosidase assay buffer (Clontech, Palo Alto, Calif.) were added into a well of 96-well plate. The β-galactosidase activity was measured as luminescence strength by using luminescence microplate reader, LumiCount (Packard, Boston, Mass.). The normalized reporter activity was calculated by the luciferase activity divided by that of β-galactosidase.
Amino acid 351 (D351) of hERα plays an essential role in regulating estrogenic or antiestrogenic compound's binding to hERα and the recruitment of corepressors. […] Based on this observation the hERα D351Y mutant is generated by PCR-based site directed mutagenesis method for use in the transient transfection reporter assay. The main goal of this testing is to elucidate the existence of the pure antiestrogenic property of the compounds of the invention and to determine whether the compounds estrogenic activity will increase due to the presence of hERα D351Y or not.
In this assay, DMSO was used as reference.

MDA-MB-231 cells = experiment: hER negative breast cancer cell proliferation assay; type: cell-based, human; settings: hER negative cell line
Description: MCF-7 or MDA-MB-231 cells were inoculated into 12-well culture plates at 10000 cells in 2 ml maintained medium per well. Cells were allowed to attach to the bottom for 24 hrs incubation, then the seeding medium was removed and replaced by the experimental medium (phenol red-free DMEM supplemented with 5% charcoal-stripped fetal bovine serum and Penicillin (100 unit/ml)/Streptomycin ([…])). After 24 hr incubation, the test molecules dissolved in DMSO were added in the wells. […] The culture was continued for 3 days and the medium and tested compounds were replaced every two days. The final cell numbers were estimated with CellTiter proliferation assay kit (Promega, Madison, Wis.) by measuring the absorbance at 570 nm, which is directly proportional to the number of living cells in the culture.
In this assay, MDA-MB-231 breast cancer cell line, a hER negative cell line, was used. DMSO was used as reference.

| Structure (SMILES) | estrogenic activity against hERα D351Y compared with hERα wild type (FIG. 5) (hERα D351Y) | estrogenic effects against mutant hERα D351Y compared with DMSO (FIG. 5) (hERα D351Y) | proliferation effects against MDA-MB-231 cells (FIG. 6, words) (MDA-MB-231 cells) |
| --- | --- | --- | --- |
| CCCCNC(=O)CCCCCCCCCCOCC1Cc2ccccc2CN1C(=O)c1cccc(OC)c1 (centres unmarked) [Compound 4] | do not increase | even lower than that of DMSO | do not inhibit or stimulate the growth |
| CCCCNC(=O)CCCCCCCCCCOCC1Cc2ccccc2CN1C(=O)c1cccc(O)c1 (centres unmarked) [Compound 6] | do not increase | even lower than that of DMSO | do not inhibit or stimulate the growth |
| CCCCNC(=O)CCCCCCCCCCOCC1Cc2ccccc2CN1C(=O)c1ccc(O)cc1 (centres unmarked) [Compound 7] | do not increase | even lower than that of DMSO | – |
